Measured values as given in PubChem BioAssay AID2060495 (Molecular Pharmacology Branch, DTP, NCI, 2025).

Tested on: 521955-158-R2-J5-PDC complex spheroid viability
Assay: Anticancer human tumor 521955-158-R2-J5-PDC patient-derived pancreatic carcinoma cell line growth inhibition [GQUAD]
Settings: for IC50: curve of first compound; for viability, T/C: stronger effect = lower value
How it was run: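 Viability of tumor cells grown as complex spheroids with endothelial and stromal cells, exposed to drug combinations. Top concentration at or near clinical Cmax (else 10 microM), diluted in half-log increments.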

[1] = second compound 0.0316 µM, first compound 0.0316 µM
[2] = second compound 0.0316 µM, first compound 0.1 µM
[3] = second compound 0.0316 µM, first compound 0.316 µM
[4] = second compound 0.0316 µM, first compound 1 µM
[5] = second compound 0.0316 µM, first compound 3.16 µM
[6] = second compound 0.0316 µM, first compound 10 µM
[7] = second compound 0.1 µM, first compound 0.0316 µM
[8] = second compound 0.1 µM, first compound 0.1 µM
[9] = second compound 0.1 µM, first compound 0.316 µM
[10] = second compound 0.1 µM, first compound 1 µM
[11] = second compound 0.1 µM, first compound 3.16 µM
[12] = second compound 0.1 µM, first compound 10 µM
[13] = second compound 0.316 µM, first compound 0.0316 µM
[14] = second compound 0.316 µM, first compound 0.1 µM
[15] = second compound 0.316 µM, first compound 0.316 µM
[16] = second compound 0.316 µM, first compound 1 µM
[17] = second compound 0.316 µM, first compound 3.16 µM
[18] = second compound 0.316 µM, first compound 10 µM
[19] = second compound 1 µM, first compound 0.0316 µM
[20] = second compound 1 µM, first compound 0.1 µM
[21] = second compound 1 µM, first compound 0.316 µM
[22] = second compound 1 µM, first compound 1 µM
[23] = second compound 1 µM, first compound 3.16 µM
[24] = second compound 1 µM, first compound 10 µM
[25] = second compound 3.16 µM, first compound 0.0316 µM
[26] = second compound 3.16 µM, first compound 0.1 µM
[27] = second compound 3.16 µM, first compound 0.316 µM
[28] = second compound 3.16 µM, first compound 1 µM
[29] = second compound 3.16 µM, first compound 3.16 µM
[30] = second compound 3.16 µM, first compound 10 µM
[31] = second compound 10 µM, first compound 0.0316 µM
[32] = second compound 10 µM, first compound 0.1 µM
[33] = second compound 10 µM, first compound 0.316 µM
[34] = second compound 10 µM, first compound 1 µM
[35] = second compound 10 µM, first compound 3.16 µM
[36] = second compound 10 µM, first compound 10 µM
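Further: spheroids exposed to agents for one week before reading.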
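Wherever viability, T/C is given: 100% = DMSO vehicle control viability.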

C=CC(=O)N1CCN(c2nc(=O)n(-c3c(C)ccnc3C(C)C)c3nc(-c4c(O)cccc4F)c(F)cc23)C(C)C1 (stereo not drawn) + CN(C)c1ccc(Nc2c3ccc(NC(=O)CCN4CCCC4)cc3nc3cc(NC(=O)CCN4CCCC4)ccc23)cc1
IC50 (second compound 0.0316 µM): > 10000 nM | IC50 (second compound 0.1 µM): > 10000 nM | IC50 (second compound 0.316 µM): > 10000 nM | IC50 (second compound 1 µM): > 10000 nM | IC50 (second compound 3.16 µM): > 10000 nM | IC50 (second compound 10 µM): > 10000 nM | viability, T/C [1]: 103% | viability, T/C [2]: 94.1% | viability, T/C [3]: 105% | viability, T/C [4]: 96.8% | viability, T/C [5]: 108% | viability, T/C [6]: 101% | viability, T/C [7]: 98.2% | viability, T/C [8]: 105% | viability, T/C [9]: 119% | viability, T/C [10]: 111% | viability, T/C [11]: 122% | viability, T/C [12]: 93.3% | viability, T/C [13]: 91.7% | viability, T/C [14]: 90.4% | viability, T/C [15]: 101% | viability, T/C [16]: 114% | viability, T/C [17]: 101% | viability, T/C [18]: 95.3% | viability, T/C [19]: 90.3% | viability, T/C [20]: 84.5% | viability, T/C [21]: 94.1% | viability, T/C [22]: 112% | viability, T/C [23]: 100% | viability, T/C [24]: 81.3% | viability, T/C [25]: 71.7% | viability, T/C [26]: 87.5% | viability, T/C [27]: 85.5% | viability, T/C [28]: 96.9% | viability, T/C [29]: 96.7% | viability, T/C [30]: 73.5% | viability, T/C [31]: 77.5% | viability, T/C [32]: 72.8% | viability, T/C [33]: 72.5% | viability, T/C [34]: 70.6% | viability, T/C [35]: 101% | viability, T/C [36]: 70.6%

COc1ncnc(C2CC2)c1-c1ncc2cnn(Cc3ccc(-c4nc(C(F)(F)F)cn4C(C)C)cc3)c2n1 + CN(C)c1ccc(Nc2c3ccc(NC(=O)CCN4CCCC4)cc3nc3cc(NC(=O)CCN4CCCC4)ccc23)cc1
IC50 (second compound 0.0316 µM): > 10000 nM | IC50 (second compound 0.1 µM): > 10000 nM | IC50 (second compound 0.316 µM): > 10000 nM | IC50 (second compound 1 µM): > 10000 nM | IC50 (second compound 3.16 µM): > 10000 nM | IC50 (second compound 10 µM): 4550 nM | viability, T/C [1]: 113% | viability, T/C [2]: 103% | viability, T/C [3]: 116% | viability, T/C [4]: 114% | viability, T/C [5]: 135% | viability, T/C [6]: 140% | viability, T/C [7]: 97.7% | viability, T/C [8]: 112% | viability, T/C [9]: 107% | viability, T/C [10]: 112% | viability, T/C [11]: 148% | viability, T/C [12]: 122% | viability, T/C [13]: 95.4% | viability, T/C [14]: 123% | viability, T/C [15]: 118% | viability, T/C [16]: 121% | viability, T/C [17]: 115% | viability, T/C [18]: 117% | viability, T/C [19]: 105% | viability, T/C [20]: 109% | viability, T/C [21]: 115% | viability, T/C [22]: 122% | viability, T/C [23]: 112% | viability, T/C [24]: 115% | viability, T/C [25]: 86% | viability, T/C [26]: 93% | viability, T/C [27]: 101% | viability, T/C [28]: 111% | viability, T/C [29]: 114% | viability, T/C [30]: 82.8% | viability, T/C [31]: 74% | viability, T/C [32]: 74.7% | viability, T/C [33]: 69.5% | viability, T/C [34]: 76.7% | viability, T/C [35]: 68.1% | viability, T/C [36]: 10.3%

C#Cc1c(F)ccc2cc(O)cc(-c3ncc4c(N5CC6CCC(C5)N6)nc(OCC56CCCN5CC(F)C6)nc4c3F)c12 (stereo not drawn) + CN(C)c1ccc(Nc2c3ccc(NC(=O)CCN4CCCC4)cc3nc3cc(NC(=O)CCN4CCCC4)ccc23)cc1
IC50 (second compound 0.0316 µM): 1770 nM | IC50 (second compound 0.1 µM): 1850 nM | IC50 (second compound 0.316 µM): 3390 nM | IC50 (second compound 1 µM): 1400 nM | IC50 (second compound 3.16 µM): 159 nM | IC50 (second compound 10 µM): < 31.6 nM | viability, T/C [1]: 66.3% | viability, T/C [2]: 62.5% | viability, T/C [3]: 57.5% | viability, T/C [4]: 48.1% | viability, T/C [5]: 52.5% | viability, T/C [6]: 41.7% | viability, T/C [7]: 74.2% | viability, T/C [8]: 52.2% | viability, T/C [9]: 62% | viability, T/C [10]: 60.8% | viability, T/C [11]: 40.6% | viability, T/C [12]: 33.5% | viability, T/C [13]: 61.3% | viability, T/C [14]: 57% | viability, T/C [15]: 62.8% | viability, T/C [16]: 52.5% | viability, T/C [17]: 53.1% | viability, T/C [18]: 32.6% | viability, T/C [19]: 74.8% | viability, T/C [20]: 56.4% | viability, T/C [21]: 60.1% | viability, T/C [22]: 50% | viability, T/C [23]: 51.6% | viability, T/C [24]: 34.2% | viability, T/C [25]: 49.7% | viability, T/C [26]: 63.3% | viability, T/C [27]: 40.5% | viability, T/C [28]: 35.8% | viability, T/C [29]: 29% | viability, T/C [30]: 16.8% | viability, T/C [31]: 31.8% | viability, T/C [32]: 23.6% | viability, T/C [33]: 15.2% | viability, T/C [34]: 10.6% | viability, T/C [35]: 6.1% | viability, T/C [36]: 1.84%

Cn1ncnc1[C@H]1c2n[nH]c(=O)c3cc(F)cc(c23)N[C@@H]1c1ccc(F)cc1 + CN(C)c1ccc(Nc2c3ccc(NC(=O)CCN4CCCC4)cc3nc3cc(NC(=O)CCN4CCCC4)ccc23)cc1
IC50 (second compound 0.0316 µM): > 316 nM | IC50 (second compound 0.1 µM): > 316 nM | IC50 (second compound 0.316 µM): > 316 nM | IC50 (second compound 1 µM): > 316 nM | IC50 (second compound 3.16 µM): > 316 nM | IC50 (second compound 10 µM): > 316 nM | viability, T/C (second compound 0.0316 µM, first compound 0.000999 µM): 99.1% | viability, T/C (second compound 0.0316 µM, first compound 0.00316 µM): 89% | viability, T/C (second compound 0.0316 µM, first compound 0.00999 µM): 104% | viability, T/C [1]: 91.1% | viability, T/C (second compound 0.0316 µM, first compound 0.0999 µM): 90.7% | viability, T/C [3]: 80% | viability, T/C (second compound 0.1 µM, first compound 0.000999 µM): 92.8% | viability, T/C (second compound 0.1 µM, first compound 0.00316 µM): 98.7% | viability, T/C (second compound 0.1 µM, first compound 0.00999 µM): 90% | viability, T/C [7]: 93.9% | viability, T/C (second compound 0.1 µM, first compound 0.0999 µM): 92.2% | viability, T/C [9]: 81.4% | viability, T/C (second compound 0.316 µM, first compound 0.000999 µM): 97.5% | viability, T/C (second compound 0.316 µM, first compound 0.00316 µM): 95.7% | viability, T/C (second compound 0.316 µM, first compound 0.00999 µM): 93.3% | viability, T/C [13]: 90.6% | viability, T/C (second compound 0.316 µM, first compound 0.0999 µM): 88.2% | viability, T/C [15]: 83.7% | viability, T/C (second compound 1 µM, first compound 0.000999 µM): 99.6% | viability, T/C (second compound 1 µM, first compound 0.00316 µM): 90.2% | viability, T/C (second compound 1 µM, first compound 0.00999 µM): 92.1% | viability, T/C [19]: 97% | viability, T/C (second compound 1 µM, first compound 0.0999 µM): 89.2% | viability, T/C [21]: 73.7% | viability, T/C (second compound 3.16 µM, first compound 0.000999 µM): 87.4% | viability, T/C (second compound 3.16 µM, first compound 0.00316 µM): 77.9% | viability, T/C (second compound 3.16 µM, first compound 0.00999 µM): 76.4% | viability, T/C [25]: 67.5% | viability, T/C (second compound 3.16 µM, first compound 0.0999 µM): 74.7% | viability, T/C [27]: 66.3% | viability, T/C (second compound 10 µM, first compound 0.000999 µM): 68.1% | viability, T/C (second compound 10 µM, first compound 0.00316 µM): 70.6% | viability, T/C (second compound 10 µM, first compound 0.00999 µM): 70.7% | viability, T/C [31]: 60.5% | viability, T/C (second compound 10 µM, first compound 0.0999 µM): 61.4% | viability, T/C [33]: 59.4%
